Experimental data: ChEMBL document CHEMBL3272271, “Folate antagonists. 13. 2,4-Diamino-6-](alpha,alpha,alpha-trifluoro-m-tolyl)thio]quinazoline and related 2,4-diamino-6-[(phenyl- and naphthyl)thio]quinazolines, a unique class of antimetabolites with extraordinary antimalarial and antibacterial effects” (J Med Chem, 1978)
In brackets after ≈: the same amount, converted by molar mass. Activity calls are given as the source filed them. The calls are words filed in the database; no cut-off is given here.

Experiments:
[1] = system: Plasmodium berghei; assay: Antimalarial activity against Plasmodium berghei infected in mouse assessed as increase in mean survival days of host at 20 mg/kg, sc administered 72 hrs after infection relative to control; assay type: functional; details: route subcutaneous
[2] = system: Plasmodium gallinaceum; assay: Antimalarial activity against sporozoite-induced Plasmodium gallinaceum infected in white leghorn chicken assessed as disease cure from parasite infection at 160 mg/kg, sc administered 72 hrs after infection; assay type: functional, organism-based; set-up: dose 160 mg/kg
[3] = system: Plasmodium gallinaceum; assay: Antimalarial activity against sporozoite-induced Plasmodium gallinaceum infected in white leghorn chicken assessed as disease cure from parasite infection at 40 mg/kg, sc administered 72 hrs after infection; assay type: functional, organism-based; set-up: dose 40 mg/kg
[4] = system: Plasmodium berghei; assay: Antimalarial activity against Plasmodium berghei infected in mouse assessed as increase in mean survival days of host at 5 mg/kg, sc administered 72 hrs after infection relative to control; assay type: functional; details: route subcutaneous
[5] = system: Mus musculus; assay: Toxicity in Plasmodium berghei infected mouse assessed as mortality at 320 mg/kg, sc administered 72 hrs after infection measured after 2 to 5 days; assay type: organism-based; set-up: dose 320 mg/kg, route subcutaneous; details: in vivo
[6] = system: Plasmodium berghei; assay: Ratio of quinine hydrochloride SD90 to compound SD90 for trophozoite-induced Plasmodium berghei infected in mouse assessed as daily dose required to suppression of 90% parasite infection administered with diet for 6 days; assay type: functional
[7] = system: Plasmodium berghei; assay: Antimalarial activity against Plasmodium berghei infected in mouse assessed as increase in mean survival days of host at 2.5 mg/kg, sc administered 72 hrs after infection relative to control; assay type: functional; details: route subcutaneous
[8] = system: Plasmodium gallinaceum; assay: Antimalarial activity against sporozoite-induced Plasmodium gallinaceum infected in white leghorn chicken assessed as disease cure from parasite infection at 320 mg/kg, sc administered 72 hrs after infection; assay type: functional, organism-based; set-up: dose 320 mg/kg
[9] = system: Plasmodium berghei; assay: Antimalarial activity against Plasmodium berghei infected in mouse assessed as disease cure from parasite infection at 640 mg/kg, sc administered 72 hrs after infection; assay type: functional, organism-based; set-up: dose 640 mg/kg
[10] = system: Plasmodium gallinaceum; assay: Antimalarial activity against sporozoite-induced Plasmodium gallinaceum infected in white leghorn chicken assessed as disease cure from parasite infection at 20 mg/kg, sc administered 72 hrs after infection; assay type: functional, organism-based; set-up: dose 20 mg/kg
[11] = system: Plasmodium berghei; assay: Antimalarial activity against Plasmodium berghei infected in mouse assessed as disease cure from parasite infection at 320 mg/kg, sc administered 72 hrs after infection; assay type: functional, organism-based; set-up: dose 320 mg/kg
[12] = system: Plasmodium berghei; assay: Antimalarial activity against Plasmodium berghei infected in mouse assessed as disease cure from parasite infection at 40 mg/kg, sc administered 72 hrs after infection; assay type: functional, organism-based; set-up: dose 40 mg/kg
[13] = system: Plasmodium gallinaceum; assay: Antimalarial activity against sporozoite-induced Plasmodium gallinaceum infected in white leghorn chicken assessed as disease cure from parasite infection at 10 mg/kg, sc administered 72 hrs after infection; assay type: functional, organism-based; set-up: dose 10 mg/kg
[14] = system: Plasmodium berghei; assay: Antimalarial activity against Plasmodium berghei infected in mouse assessed as disease cure from parasite infection at 80 mg/kg, sc administered 72 hrs after infection; assay type: functional, organism-based; set-up: dose 80 mg/kg
[15] = system: Gallus gallus; assay: Toxicity in sporozoite-induced Plasmodium gallinaceum infected white leghorn chicken assessed as mortality at 320 mg/kg, sc administered 72 hrs after infection measured up to 6 days; assay type: organism-based; set-up: dose 320 mg/kg, route subcutaneous; details: in vivo
[16] = system: Mus musculus; assay: Toxicity in Plasmodium berghei infected mouse assessed as mortality at 640 mg/kg, sc administered 72 hrs after infection measured after 2 to 5 days; assay type: organism-based; set-up: dose 640 mg/kg, route subcutaneous; details: in vivo
[17] = system: Plasmodium berghei; assay: Antimalarial activity against Plasmodium berghei infected in mouse assessed as increase in mean survival days of host at 1.25 mg/kg, sc administered 72 hrs after infection relative to control; assay type: functional; details: route subcutaneous
[18] = system: Plasmodium berghei; assay: Antimalarial activity against Plasmodium berghei infected in mouse assessed as increase in mean survival days of host at 10 mg/kg, sc administered 72 hrs after infection relative to control; assay type: functional; details: route subcutaneous
[19] = system: Plasmodium gallinaceum; assay: Antimalarial activity against sporozoite-induced Plasmodium gallinaceum infected in white leghorn chicken assessed as disease cure from parasite infection at 80 mg/kg, sc administered 72 hrs after infection; assay type: functional, organism-based; set-up: dose 80 mg/kg
[20] = system: Plasmodium berghei; assay: Antimalarial activity against Plasmodium berghei infected in mouse assessed as disease cure from parasite infection at 160 mg/kg, sc administered 72 hrs after infection; assay type: functional, organism-based; set-up: dose 160 mg/kg
[21] = system: Plasmodium berghei; assay: Antimalarial activity against trophozoite-induced Plasmodium berghei infected in mouse assessed as daily dose required to suppression of 90% parasite infection administered with diet for 6 days; assay type: functional
[22] = system: Enterococcus faecalis; assay: Antibacterial activity against Streptococcus faecalis MGH-2 by gradient plate test; assay type: functional
[23] = system: Plasmodium gallinaceum; assay: Antimalarial activity against trophozoite-induced Plasmodium gallinaceum infected in white leghorn chicken assessed as increase in mean survival days of host at 2.5 mg/kg, sc administered 72 hrs after infection relative to control; assay type: functional; details: route subcutaneous
[24] = system: Plasmodium gallinaceum; assay: Antimalarial activity against sporozoite-induced Plasmodium gallinaceum infected in white leghorn chicken assessed as disease cure from parasite infection at 480 mg/kg, sc administered 72 hrs after infection; assay type: functional, organism-based; set-up: dose 480 mg/kg
[25] = system: Plasmodium gallinaceum; assay: Antimalarial activity against sporozoite-induced Plasmodium gallinaceum infected in white leghorn chicken assessed as disease cure from parasite infection at 120 mg/kg, sc administered 72 hrs after infection; assay type: functional, organism-based; set-up: dose 120 mg/kg
[26] = system: Shigella sonnei; assay: Antibacterial activity against Shigella sonnei C-10 by gradient plate test; assay type: functional
[27] = system: Plasmodium gallinaceum; assay: Antimalarial activity against trophozoite-induced Plasmodium gallinaceum infected in white leghorn chicken assessed as increase in mean survival days of host at 10 mg/kg, sc administered 72 hrs after infection relative to control; assay type: functional; details: route subcutaneous
[28] = system: Escherichia coli; assay: Antibacterial activity against Escherichia coli Vogel by gradient plate test; assay type: functional
[29] = system: Plasmodium gallinaceum; assay: Antimalarial activity against sporozoite-induced Plasmodium gallinaceum infected in white leghorn chicken assessed as disease cure from parasite infection at 60 mg/kg, sc administered 72 hrs after infection; assay type: functional, organism-based; set-up: dose 60 mg/kg
[30] = system: Plasmodium gallinaceum; assay: Antimalarial activity against sporozoite-induced Plasmodium gallinaceum infected in white leghorn chicken assessed as disease cure from parasite infection at 15 mg/kg, sc administered 72 hrs after infection; assay type: functional, organism-based; set-up: dose 15 mg/kg
[31] = system: Plasmodium gallinaceum; assay: Antimalarial activity against sporozoite-induced Plasmodium gallinaceum infected in white leghorn chicken assessed as disease cure from parasite infection at 240 mg/kg, sc administered 72 hrs after infection; assay type: functional, organism-based; set-up: dose 240 mg/kg
[32] = system: Plasmodium gallinaceum; assay: Antimalarial activity against sporozoite-induced Plasmodium gallinaceum infected in white leghorn chicken assessed as disease cure from parasite infection at 30 mg/kg, sc administered 72 hrs after infection; assay type: functional, organism-based; set-up: dose 30 mg/kg
[33] = system: Plasmodium berghei; assay: Antimalarial activity against chloroquine-resistant Plasmodium berghei assessed as drug resistance; assay type: functional, organism-based
[34] = system: Plasmodium berghei; assay: Antimalarial activity against Plasmodium berghei infected in mouse assessed as disease cure from parasite infection at 20 mg/kg, sc administered 72 hrs after infection; assay type: functional, organism-based; set-up: dose 20 mg/kg
[35] = system: Plasmodium gallinaceum; assay: Antimalarial activity against trophozoite-induced Plasmodium gallinaceum infected in white leghorn chicken assessed as increase in mean survival days of host at 40 mg/kg, sc administered 72 hrs after infection relative to control; assay type: functional; details: route subcutaneous
[36] = system: Plasmodium berghei; assay: Antimalarial activity against cycloguanil-resistant Plasmodium berghei assessed as drug resistance; assay type: functional, organism-based
[37] = system: Plasmodium gallinaceum; assay: Antimalarial activity against trophozoite-induced Plasmodium gallinaceum infected in white leghorn chicken assessed as increase in mean survival days of host at 5 mg/kg, sc administered 72 hrs after infection relative to control; assay type: functional; details: route subcutaneous
[38] = system: Plasmodium gallinaceum; assay: Antimalarial activity against trophozoite-induced Plasmodium gallinaceum infected in white leghorn chicken assessed as increase in mean survival days of host at 20 mg/kg, sc administered 72 hrs after infection relative to control; assay type: functional; details: route subcutaneous
[39] = system: Staphylococcus aureus; assay: Antibacterial activity against Staphylococcus aureus UC-96 by gradient plate test; assay type: functional
[40] = system: Plasmodium berghei; assay: Antimalarial activity against Plasmodium berghei infected in mouse assessed as disease cure from parasite infection at 10 mg/kg, sc administered 72 hrs after infection; assay type: functional, organism-based; set-up: dose 10 mg/kg
[41] = system: Plasmodium gallinaceum; assay: Antimalarial activity against sporozoite-induced Plasmodium gallinaceum infected in white leghorn chicken assessed as disease cure from parasite infection at 7.5 mg/kg, sc administered 72 hrs after infection; assay type: functional, organism-based; set-up: dose 7.5 mg/kg
[42] = system: Pseudomonas aeruginosa; assay: Antibacterial activity against Pseudomonas aeruginosa 28 by gradient plate test; assay type: functional
[43] = system: Plasmodium gallinaceum; assay: Antimalarial activity against trophozoite-induced Plasmodium gallinaceum infected in white leghorn chicken assessed as increase in mean survival days of host at 1.25 mg/kg, sc administered 72 hrs after infection relative to control; assay type: functional; details: route subcutaneous
[44] = system: Staphylococcus aureus; assay: Antibacterial activity against drug-resistant Staphylococcus aureus S18713 by gradient plate test; assay type: functional

CCc1nc(N)nc(N)c1-c1ccc(Cl)cc1 [PYRIMETHAMINE]
MST [1]: 7.7 days
Activity [2]: Active
Activity [3]: Active
MST [4]: 5.3 days
Activity [5]: Toxic
Ratio [6]: 270
MST [7]: 4.7 days
Activity [8]: Active
Activity [9]: Active
Activity [10]: Active
Activity [11]: Active
Activity [12]: Active
Activity [13]: Active
Activity [14]: Active
Activity [15]: Toxic
Activity [16]: Toxic
MST [17]: 3.1 days
MST [18]: 6.1 days
Activity [19]: Active
Activity [20]: Active
SD90 [21]: 0.28 mg/kg/day

Nc1nc(N)c2cc(Sc3ccc(Br)cc3)ccc2n1
MIC [22]: < 0.25 µg/mL
MST [23]: 6 days
MST [1]: 14.4 days
Activity [24]: Active
MST [4]: 6.7 days
Ratio [6]: 62
Activity [25]: Active
MIC [26]: 2 µg/mL (≈ 5.76 µM)
MST [7]: 3.6 days
MST [27]: 8.2 days
Activity [9]: Active
MIC [28]: 1 µg/mL (≈ 2.88 µM)
Activity [29]: Active
Activity [30]: Active
Activity [11]: Active
Activity [31]: Active
Activity [32]: Active
Activity [12]: Active
Activity [33]: inactive
Activity [34]: Active
MST [35]: 12.8 days
Activity [36]: Active
Activity [14]: Active
MST [37]: 7.2 days
MST [17]: 2.2 days
MST [38]: 11.8 days
MIC [39]: < 0.25 µg/mL
MST [18]: 19.6 days
Activity [40]: Active
Activity [41]: Active
MIC [42]: > 25 µg/mL
Activity [20]: Active
SD90 [21]: 1.2 mg/kg/day
MST [43]: 3 days
MIC [44]: < 0.25 µg/mL
